# Assay results as given in patent US4276430A, “Analgesic and anti-inflammatory compounds and compositions containing same” (The Procter & Gamble Company, priority 1979, dated 1981).
# Columns and labels:
# [1] = guinea pig ultraviolet light induced erythema test; type: in vivo, guinea pig (Hartley strain albino); settings: Cavia porcellus; topical; cumulative blanching grades over a 1-4 hour period after application; vehicle propylene glycol/ethanol; read-out: IC50 (concentration which inhibits UV-induced erythema by 50%)
# Description: The compositions of this invention are evaluated for their anti-inflammation properties using a guinea pig ultraviolet light induced erythema test.
# Hartley strain albino guinea pigs weighing between 400 and 500 grams are clipped on the dorsal area and then depilated using a cream hair remover. 15 minutes after the application of the hair remover, the area is thoroughly washed using warm tap water and then dried with a towel. […] Ten minutes irradiation constitutes a minimal erythema dose. An adhesive tape strip is attached to the center of the guinea pig's back to retain an unirradiated portion of skin. About 1 hour after irradiation time, 3 preparations are applied on each side using a micropipette. The treated areas are about 1×4 cm in size and are aligned vertically from near the center back down the side. The degree of blanching is determined at hourly intervals.
# Compositions as below are formulated and tested.
# *Dihydroxybenzoic acid derivative
# Comparisons of the anti-inflammatory activity of the dihydroxybenzoic acid derivatives are made by calculating their IC50 values.
# [2] = UV-induced erythema test in humans: anti-erythemic activity (blanching); type: in vivo, human; settings: for blanching response: first 3-4 hours after a single application
# [3] = UV-induced pain test in humans: analgesic activity (radiant heat pain stimulus); type: in vivo, human; settings: for Recovery of Treated Skin: 1% (w/w) in propylene glycol/ethanol
# Text: The UV-induced erythema and/or pain model consists of creating a burn with ultraviolet light (UV) and treating the resultant erythemal reaction with topical applications of the new drug formulations. At various time intervals, the degree of erythema and the pain tolerance response to radiant heat are monitored.
# Experiments have been designed to determine the effectiveness of benzyl 2,5-diacetoxybenzoate according to several parameters: treatment times, concentration of drug, repeated applications,duration of response, and vehicles.
# A total of 56 subjects were actually used in the UV-induced erythema and pain tests.
# The compositions of the test formulations employed in these studies were as follows: […]
# (E) 0.01-0.5% (w/w) benzyl 2,5-diacetoxybenzoate in ethanol/propylene glycol/water (50/10/40, w/w/w);
# (G)* 0.025 to 2.5% (w/w) benzyl 2,5-diacetoxybenzoate in a cream vehicle;
# Induction of Erythema: Subjects were irradiated on a 2.5×20 cm area on their backs, using a bank of three 20S Westinghouse fluorescent lamps at a distance of 15 cm. Each subject received 2 to 4 MEDs of light (minimum erythemal dose) for these experiments.
# Treatment with Formulations: The UV-irradiated area was divided into 4 treatment sites. When liquid formulations were tested, up to 40 microliter were topically applied to each treatment site using an Eppendorf micropipet. When cream formulations were tested, no more than 100 microliter were topically applied to each treatment site using a 1 cc tuberculin syringe with no needle; the cream was rubbed into the skin with a gloved finger.
# Each site was treated no more than 4 times, and all treatments occurred within the 24-hour interval following UV-irradiation.
# A randomixed treatment sequence was used.
# 2. Analgesic At suitable time
# Elapsed time, in seconds,
# Activity intervals within
# to respond to a radiant
# treated and untreated skin.
# Skin irradiated with 3-4 MEDs (minimal erythemal doses) of UV-B light (normal sunburn range) becomes hyperalgesic to radiant heat in about four hours.
# The experimental design was regarded as randomized blocks, in which the subject is the "block". The variation between subjects with respect to erythema or analgesic response was accounted for as a source of variation in the Analysis of Variance (ANOVA).
# [4] = suppression of inflammation associated with arthritis (Mycobacterium butyricum, hind paw volume); type: in vivo, rat (Male Sprague-Dawley); settings: topical 20 mg/kg/day, five weeks
# Description: This example illustrates the efficacy of the dihydroxybenzoic acid derivatives described herein for suppressing the inflammation associated with arthritis.
# Male Sprague-Dawley rats, weighing between 180-200 grams, are injected subcutaneously in the distal third of the tail with a suspension of 0.8 mg of heat-killed Mycobacterium butyricum in 0.1 ml of mineral oil. This injection introduces arthritis into the rat as evidenced by pedal edema (swelling). Measurement of the alleviation of the inflammation associated with the arthritis is made by determining the volume of the hind paws initially, two weeks later, and each subsequent week thereafter. The paw volume measurements are obtained by immersing each rat's hind paw up to a predetermined mark in a mercury bath connected to a Statham pressure transducer. The increase in pressure within the bath is proportional to the volume of the paw introduced.
# A solution of benzyl 2,5-diacetoxybenzoate is made. The solution comprises a 1:1 mixture of propylene glycol and ethanol and 2% benzyl 2,5-diacetoxybenzoate. In one group, each rat is treated topically with 20 mg/kg/day of the benzyl 2,5-diacetoxybenzoate solution. The changes in paw volume after each treatment are compared to the control rats.
# [5] = administered orally; aspirin-based products; cited from earlier work
# [6] = cited from earlier work
# [7] = vehicle propylene glycol/ethanol (50/50, w/w)
smiles,measurement,setting,value
"CCCCCCOC(=O)c1cc(OC(C)=O)ccc1OC(C)=O [C6 H13, Hexyl 2,5-diacetoxybenzoate]",IC50,[1],340 µM
"CCCCCCCCCCOC(=O)c1cc(OC(C)=O)ccc1OC(C)=O [C10 H21, Decyl 2,5-diacetoxybenzoate]",IC50,[1],650 µM
"CCCCCCCCCCCCOC(=O)c1cc(OC(C)=O)ccc1OC(C)=O [C12 H25, Dodecyl 2,5-diacetoxybenzoate]",IC50,[1],1200 µM
CC(=O)Oc1ccc(OC(C)=O)c(C(=O)OC(C)c2ccccc2)c1 (stereo not shown) [CH(C6 H5)CH3],IC50,[1],1200 µM
"CCCCC(CC)COC(=O)c1cc(OC(C)=O)ccc1OC(C)=O (stereo not shown) [C2 H3 (C2 H5)C4 H9, 2'-ethylhexyl 2,5-diacetoxybenzoate]",IC50,[1],5800 µM
"CC(=O)Oc1ccc(OC(C)=O)c(C(=O)OCc2ccccc2)c1 [Benzyl 2,5-diacetoxybenzoate]",IC50,[1],400 µM
same,blanching response,[2]; 0.01%,distinctly weaker
same,blanching response,[2]; 0.03-2.5%,very similar responses
same,"blanching response, multiple application compared with single application","[2]; 1 to 2.5%, 1 to 4 times within 24 hours",did not produce an effect greater than obtained with a single application
same,half-life of the response (time for the maximum response to diminish 50%),[2]; after drug treatment,about 9 hours
same,time of maximum blanching response,[2]; after drug treatment,2 to 3 h
same,effect of treatment time on blanching response,[2]; application from a few minutes to 24 hours following UV-irradiation,"the earlier a given treatment was made after UV-irradiation, the greater the blanching response"
same,"vehicle effectiveness, peak blanching response: rank 1 (decreasing order)",[2]; at a given concentration,"propylene glycol/ethanol (50/50, w/w)"
same,"vehicle effectiveness, peak blanching response: rank 2 (decreasing order)",[2]; at a given concentration,"ethanol/propylene glycol/water (50/10/40, w/w/w)=cream"
same,"vehicle effectiveness, peak blanching response: rank 3 (decreasing order)",[2]; at a given concentration,"ethanol/water (80/20, w/w)"
same,anti-erythemic activity,[2]; conclusion,has anti-erythemic activity
same,duration of some degree of blanching,"[2]; higher concentrations, after treatment, dose-related",5 to 11 h
same,"blanching response, repeated application","[2]; low concentrations, e.g., 0.03%, 1 to 4 times within 24 hours",high blanching response
same,antierythemic activity by vehicle,"[2]; propylene glycol/ethanol (50/50, w/w) vehicle",highest antierythemic activity
same,Tests with Analgesic Responses,"[3]; 0.01% in Propylene Glycol/Ethanol (50/50, w/w)",1/6
same,dose dependence of the analgesic response,"[3]; 0.01-1.0% in Propylene Glycol/Ethanol (50/50, w/w)",dose-dependent
same,Tests with Analgesic Responses,"[3]; 0.1% in Propylene Glycol/Ethanol (50/50, w/w)",2/6
same,"analgesic activity, three applications compared with 2 or 1",[3]; 0.25%,more effective than 2 or 1 applications
same,"analgesic activity, repeated application compared with single application",[3]; 1%,failed to increase the level of analgesic activity effected by a single application
same,time of maximum analgesic activity,"[3]; 1% (w/w) in propylene glycol/ethanol (50/50, w/w), treatment 2 to 6 hours after UV-irradiation, following treatment",2 to 4 h
same,duration of some analgesic effects,"[3]; 1% (w/w) in propylene glycol/ethanol (50/50, w/w), after treatment(s)",up to 10 hours
same,Tests with Analgesic Responses,"[3]; 1.0% in Propylene Glycol/Ethanol (50/50, w/w)",9/12
same,Recovery of Treated Skin,"[3]; 2-4 hours after treatment, 22 subjects, SE 0.5, normal minus non-treated skin 4.0",2.4 s
same,Recovery of Treated Skin,"[3]; 5-7 hours after treatment, 16 subjects, SE 0.4",1.6 s
same,Recovery of Treated Skin,"[3]; 8-10 hours after treatment, 6 subjects, SE 0.7",1.4 s
same,"delivery of an efficacious dose into the skin, compared with propylene glycol/ethanol","[3]; Ethanol/water (80/20), ethanol/propylene glycol/water (50/10/40), and a cream",somewhat less effective than propylene glycol/ethanol
same,topical analgesic activity,"[3]; conclusion, rather severe and acute pain",does have topical analgesic activity for rather severe and acute pain
same,return to normal pain tolerance,"[3]; in 8 out of the 12 tests, at least one concentration at one time point",≥ 80%
same,analgesic action in non-irradiated skin,[3]; non-irradiated skin,No evidence of analgesic action was found
same,analgesic response by vehicle,"[3]; propylene glycol/ethanol (50/50, w/w) vehicle, compared with 4 vehicle systems",strongest analgesic activity
same,analgesic activity,[3]; skin treated 2 to 6 hours following UV-irradiation,Analgesic activity was demonstrated
same,tests in which at least one concentration at one time point effected at least an 80% return to normal pain tolerance,[3]; [7],8 out of the 12
same,tests with statistically significant analgesia,[3]; [7],9 out of 12
same,reduction in pedal edema compared to non-treated control group,[4]; 2% solution in 1:1 propylene glycol and ethanol,significant improvement compared to the non-treated control group
same,reduction in pedal edema compared with aspirin 200 mg/kg/day oral,[4],comparable
"CCCOC(=O)c1cc(OC(C)=O)ccc1OC(C)=O [C3 H7, Propyl 2,5-diacetoxybenzoate]",IC50,[1],1100 µM
"CCCCOC(=O)c1cc(OC(C)=O)ccc1OC(C)=O [C4 H9, n-Butyl 2,5-diacetoxybenzoate]",IC50,[1],1200 µM
COC(=O)c1cc(OC(C)=O)ccc1OC(C)=O [CH3],IC50,[1],2300 µM
CC(=O)Oc1ccccc1C(=O)O [aspirin],"gastric irritation and frank stomach bleeding, patients affected",[5],up to 70%
same,skin irritation on repeated topical application,[6]; repeated topical application of a high level,primary irritation and peeling of the superificial layers (the stratum corneum) of the skin
same,concentration needed for topical analgesic effect,[6]; topical,a relatively high concentration of aspirin must be topically applied before its effect as a topical analgesic is noted
same,effect on inflammation in humans when applied topically,[6]; topical,can delay and decrease inflammation in humans when applied topically
CCOC(=O)c1cc(OC(C)=O)ccc1OC(C)=O [C2 H5],IC50,[1],1800 µM
CCCCCCCCOC(=O)c1cc(OC(C)=O)ccc1OC(C)=O [C8 H17],IC50,[1],340 µM
